The values below are quoted from earlier work in patent US6992047B2, “Method of microencapsulating an agricultural active having a high melting point and uses for such materials” (Monsanto Technology LLC, priority 2001, dated 2006).

For this series the following is noted: at 20° C.

For the compound `C=CCNC(=O)c1c([Si](C)(C)C)sc(C)c1C` [silthiopham, 4,5-dimethyl-N-(2-propenyl)-2-(trimethylsilyl)-3-thiophenecarboxamide], the water solubility is 35 ppm.
